Laboratory results as given in PubChem BioAssay AID248 (DTP/NCI, 2004).
“And” between values parts separate entries of the source, which are not always exact repeats. Identical values can stand only once. Toxic doses and inconclusive results are not listed. Cut-off read from the data, not from the text of the source: active = T/C of 150% or more; inactive = T/C below 125%.

System: L1210 leukemia ip in BDF1 mice, survival T/C
Test: NCI In Vivo Anticancer Drug Screen. Data for tumor model L1210 Leukemia (intraperitoneal) in B6D2F1 (BDF1) mice
Conditions: endpoint: mean survival time, higher = longer survival
Procedure, shortened: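 Transplanted-tumor mice were given test agent; controls received vehicle only. Survival readings from the two groups were divided (treated over control).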

[1] = dose: 100.0 mg/kg/injection, schedule: Q01DX009 (ip), vehicle: saline
[2] = dose: 100.0 mg/kg/injection, schedule: Q04DX003 (ip), vehicle: saline
[3] = dose: 200.0 mg/kg/injection, schedule: Q01DX009 (ip), vehicle: saline
[4] = dose: 200.0 mg/kg/injection, schedule: Q04DX003 (ip), vehicle: saline
[5] = dose: 400.0 mg/kg/injection, schedule: Q04DX003 (ip), vehicle: saline
[6] = dose: 25.0 mg/kg/injection, schedule: Q04DX003 (ip), vehicle: saline with Tween-80
[7] = dose: 50.0 mg/kg/injection, schedule: Q04DX003 (ip), vehicle: saline with Tween-80
[8] = dose: 100.0 mg/kg/injection, schedule: Q04DX003 (ip), vehicle: saline with Tween-80
[9] = dose: 200.0 mg/kg/injection, schedule: Q04DX003 (ip), vehicle: saline with Tween-80
[10] = dose: 400.0 mg/kg/injection, schedule: Q04DX003 (ip), vehicle: saline with Tween-80
[11] = dose: 100.0 mg/kg/injection, schedule: Q04DX003 (ip), vehicle: Klucel (hydroxypropylcellulose) (HPC)
[12] = dose: 100.0 mg/kg/injection, schedule: Q01DX009 (ip), vehicle: Klucel (hydroxypropylcellulose) (HPC)
[13] = dose: 200.0 mg/kg/injection, schedule: Q01DX009 (ip), vehicle: Klucel (hydroxypropylcellulose) (HPC)
[14] = dose: 50.0 mg/kg/injection, schedule: Q01DX009 (ip), vehicle: Klucel (hydroxypropylcellulose) (HPC)
[15] = dose: 50.0 mg/kg/injection, schedule: Q04DX003 (ip), vehicle: water

Measured: T/C

CC(C)C1NC(=O)NC1=O (configuration not stated)
inactive: [1] 98 % of control | [2] 103 % of control | [3] 105 % of control | [4] 101 % of control | dose: 400.0 mg/kg/injection, schedule: Q01DX009 (ip), vehicle: saline 103 % of control | [5] 97 % of control

CCOP(=S)(OCC)SC(C)(C)C
inactive: [6] 95 % of control | [7] 103 % of control | [8] 104 % of control and 108 % of control

CSC(N(C)C)=[N+](C)C
inactive: dose: 15.0 mg/kg/injection, schedule: Q01DX Z (ip), vehicle: methylcellulose (MC) 101 % of control | dose: 30.0 mg/kg/injection, schedule: Q01DX Z (ip), vehicle: methylcellulose (MC) 105 % of control | dose: 60.0 mg/kg/injection, schedule: Q01DX Z (ip), vehicle: methylcellulose (MC) 105 % of control | dose: 60.0 mg/kg/injection, schedule: Q01DX Z (oral), vehicle: methylcellulose (MC) 95 % of control | [8] 100 % of control | dose: 120.0 mg/kg/injection, schedule: Q01DX Z (ip), vehicle: methylcellulose (MC) 103 % of control | dose: 120.0 mg/kg/injection, schedule: Q01DX Z (oral), vehicle: methylcellulose (MC) 97 % of control | [9] 107 % of control

Cc1ccc(-c2nn3c(-c4ccccc4)nnc3o2)cc1
inactive: dose: 100.0 mg/kg/injection, schedule: Q01DX009 (ip), vehicle: saline with Tween-80 97 % of control | dose: 200.0 mg/kg/injection, schedule: Q01DX009 (ip), vehicle: saline with Tween-80 94 % of control | dose: 400.0 mg/kg/injection, schedule: Q01DX009 (ip), vehicle: saline with Tween-80 102 % of control

CSc1nc(Cl)cc(/N=C/N(C)C)n1
inactive: [8] 95 % of control | [9] 115 % of control | [10] 111 % of control

Clc1ccc(OCc2sc3ccc(Cl)cc3c2CN2CCOCC2)cc1
inactive: [8] 91 % of control | [9] 90 % of control | [10] 91 % of control

CCOC(=O)/C(=C\c1ccccc1)C(C)=O
inactive: [11] 101 % of control | dose: 200.0 mg/kg/injection, schedule: Q04DX003 (ip), vehicle: Klucel (hydroxypropylcellulose) (HPC) 92 % of control | dose: 400.0 mg/kg/injection, schedule: Q04DX003 (ip), vehicle: Klucel (hydroxypropylcellulose) (HPC) 104 % of control

Cc1ccc(C)c(NS(=O)(=O)c2cc(Cl)c(Cl)cc2Cl)c1
inactive: [12] 98 % of control | [13] 96 % of control

CN(C)P1(=O)OCCN1N (configuration not stated)
inactive: dose: 50.0 mg/kg/injection, schedule: Q01DX009 (ip), vehicle: saline 105 % of control | [1] 117 % of control | [2] 104 % of control | [3] 103 % of control | [4] 96 % of control

CCOc1ccc([N+](=O)[O-])cc1CNCCCl
inactive: dose: 25.0 mg/kg/injection, schedule: Q04DX003 (ip), vehicle: Klucel (hydroxypropylcellulose) (HPC) 102 % of control | dose: 50.0 mg/kg/injection, schedule: Q04DX003 (ip), vehicle: Klucel (hydroxypropylcellulose) (HPC) 98 % of control | [11] 98 % of control and 104 % of control

COc1ccc(NC(=S)N(CCC#N)C2CCCCC2)cc1
inactive: dose: 100.0 mg/kg/injection, schedule: Q04DX002 (ip), vehicle: Klucel (hydroxypropylcellulose) (HPC) 101 % of control | dose: 200.0 mg/kg/injection, schedule: Q04DX002 (ip), vehicle: Klucel (hydroxypropylcellulose) (HPC) 94 % of control | dose: 400.0 mg/kg/injection, schedule: Q04DX002 (ip), vehicle: Klucel (hydroxypropylcellulose) (HPC) 90 % of control

ClC(Cl)(Cl)c1nc2nccnc2[nH]1
inactive: [6] 98 % of control | [7] 97 % of control | dose: 100.0 mg/kg/injection, schedule: Q04DX003 (ip), vehicle: saline sonified 96 % of control | [8] 110 % of control

Cc1nn(C)c(N)c1N=O
inactive: [14] 102 % of control | [12] 98 % of control | [13] 102 % of control

Cc1cccc(CCl)c1
inactive: dose: 37.5 mg/kg/injection, schedule: Q01DX009 (ip), vehicle: saline sonified 106 % of control | dose: 75.0 mg/kg/injection, schedule: Q01DX009 (ip), vehicle: saline sonified 95 % of control | [2] 102 % of control | dose: 150.0 mg/kg/injection, schedule: Q01DX009 (ip), vehicle: saline sonified 98 % of control | [4] 100 % of control | [5] 93 % of control

O=C1/C(=C\c2ccccc2)C(Br)c2ccccc21 (configuration not stated)
inactive: dose: 12.5 mg/kg/injection, schedule: Q01DX009 (ip), vehicle: water 95 % of control | dose: 12.5 mg/kg/injection, schedule: Q04DX003 (ip), vehicle: water 100 % of control | dose: 25.0 mg/kg/injection, schedule: Q01DX009 (ip), vehicle: water 97 % of control | dose: 25.0 mg/kg/injection, schedule: Q04DX003 (ip), vehicle: water 91 % of control | dose: 50.0 mg/kg/injection, schedule: Q01DX009 (ip), vehicle: water 100 % of control | [15] 92 % of control

CSC(=O)N=Nc1c(O)n(C)c(=O)n(C)c1=O
inactive: dose: 12.5 mg/kg/injection, schedule: Q01DX009 (ip), vehicle: saline with Tween-80 104 % of control | dose: 25.0 mg/kg/injection, schedule: Q01DX009 (ip), vehicle: saline with Tween-80 97 % of control | dose: 50.0 mg/kg/injection, schedule: Q01DX009 (ip), vehicle: saline with Tween-80 97 % of control and 87 % of control

CN(C)N=Nc1cn(C)c(=O)[nH]c1=O
inactive: [15] 114 % of control | dose: 400.0 mg/kg/injection, schedule: Q04DX003 (ip), vehicle: water 112 % of control

C1CCC2C(C1)CCCC2CCC1CCCC2CCCCC21 (configuration not stated)
inactive: dose: 50.0 mg/kg/injection, schedule: Q04DX002 (ip), vehicle: saline with Tween-80 95 % of control | dose: 100.0 mg/kg/injection, schedule: Q04DX002 (ip), vehicle: saline with Tween-80 92 % of control | dose: 200.0 mg/kg/injection, schedule: Q04DX002 (ip), vehicle: saline with Tween-80 89 % of control | dose: 400.0 mg/kg/injection, schedule: Q04DX002 (ip), vehicle: saline with Tween-80 100 % of control

Cc1ccc(S(=O)(=O)[O][Sn-]([CH2]c2ccccc2)([CH2]c2ccccc2)[CH2]c2ccccc2)cc1
inactive: dose: 50.0 mg/kg/injection, schedule: Q01DX009 (ip), vehicle: olive oil, sesame oil, peanut oil 97 % of control | dose: 100.0 mg/kg/injection, schedule: Q01DX009 (ip), vehicle: olive oil, sesame oil, peanut oil 92 % of control | dose: 100.0 mg/kg/injection, schedule: Q04DX002 (ip), vehicle: alcohol 97 % of control | dose: 200.0 mg/kg/injection, schedule: Q04DX002 (ip), vehicle: alcohol 90 % of control

C=C(Br)CNC(=O)c1ccccc1
inactive: dose: 12.5 mg/kg/injection, schedule: Q01DX009 (ip), vehicle: Klucel (hydroxypropylcellulose) (HPC) 97 % of control | dose: 25.0 mg/kg/injection, schedule: Q01DX009 (ip), vehicle: Klucel (hydroxypropylcellulose) (HPC) 108 % of control | [14] 90 % of control | dose: 100.0 mg/kg/injection, schedule: Q01DX001 (ip), vehicle: Klucel (hydroxypropylcellulose) (HPC) 101 % of control | dose: 200.0 mg/kg/injection, schedule: Q01DX001 (ip), vehicle: Klucel (hydroxypropylcellulose) (HPC) 106 % of control

Cn1c(=O)cc(CC(=O)O)c2ccccc21
inactive: dose: 100.0 mg/kg/injection, schedule: Q01DX001 (ip), vehicle: other 95 % of control | dose: 200.0 mg/kg/injection, schedule: Q01DX001 (ip), vehicle: other 95 % of control | dose: 400.0 mg/kg/injection, schedule: Q01DX001 (ip), vehicle: other 98 % of control
